Values joined by “and” are separate entries in the source; they are usually repeats but may differ in a detail not shown here. Equal values may be shown once. Toxic doses and inconclusive results are not listed. Cut-off read from the data, not from the text of the source: active = T/C of 150% or more; inactive = T/C below 125%.
Test system: L1210 leukemia ip in BDF1 mice, survival T/C
Assay: NCI In Vivo Anticancer Drug Screen. Data for tumor model L1210 Leukemia (intraperitoneal) in B6D2F1 (BDF1) mice
Settings: endpoint: mean survival time, higher = longer survival
Method: The antitumor activity of compounds was measured in mice bearing transplantable tumors. Survival or tumor size were measured and the results are expressed as the measurement made in the treated group (T) divided by the measurement made in the vehicle treated control group (C). The tumor model used in this assay is L1210 Leukemia (intraperitoneal) in B6D2F1 (BDF1) mice

[1] = dose: 100.0 mg/kg/injection, schedule: Q04DX003 (ip), vehicle: saline with Tween-80
[2] = dose: 100.0 mg/kg/injection, schedule: Q01DX001 (ip), vehicle: saline
[3] = dose: 200.0 mg/kg/injection, schedule: Q01DX001 (ip), vehicle: saline
[4] = dose: 400.0 mg/kg/injection, schedule: Q01DX001 (ip), vehicle: saline
[5] = dose: 100.0 mg/kg/injection, schedule: Q04DX003 (ip), vehicle: Klucel (hydroxypropylcellulose) (HPC)
[6] = dose: 200.0 mg/kg/injection, schedule: Q04DX003 (ip), vehicle: Klucel (hydroxypropylcellulose) (HPC)
[7] = dose: 400.0 mg/kg/injection, schedule: Q04DX003 (ip), vehicle: Klucel (hydroxypropylcellulose) (HPC)
[8] = dose: 100.0 mg/kg/injection, schedule: Q01DX009 (ip), vehicle: saline
[9] = dose: 100.0 mg/kg/injection, schedule: Q04DX003 (ip), vehicle: saline
[10] = dose: 200.0 mg/kg/injection, schedule: Q04DX003 (ip), vehicle: saline
[11] = dose: 200.0 mg/kg/injection, schedule: Q04DX003 (ip), vehicle: saline with Tween-80
[12] = dose: 400.0 mg/kg/injection, schedule: Q04DX003 (ip), vehicle: saline with Tween-80

Measured: T/C

O=C(/C=N/O)c1cccnc1
inactive: [1] 97 % of control

N/N=C(\N)N(Cc1ccccc1)c1ccccc1
inactive: dose: 7.5 mg/kg/injection, schedule: Q01DX001 (ip), vehicle: saline 94 % of control | dose: 7.5 mg/kg/injection, schedule: Q01DX009 (ip), vehicle: saline 96 % of control | dose: 7.5 mg/kg/injection, schedule: Q04DX003 (ip), vehicle: saline 97 % of control | dose: 15.0 mg/kg/injection, schedule: Q01DX001 (ip), vehicle: saline 92 % of control | dose: 15.0 mg/kg/injection, schedule: Q01DX009 (ip), vehicle: saline 94 % of control | dose: 15.0 mg/kg/injection, schedule: Q04DX003 (ip), vehicle: saline 95 % of control | dose: 30.0 mg/kg/injection, schedule: Q01DX001 (ip), vehicle: saline 100 % of control | dose: 30.0 mg/kg/injection, schedule: Q01DX009 (ip), vehicle: saline 102 % of control | dose: 30.0 mg/kg/injection, schedule: Q04DX003 (ip), vehicle: saline 97 % of control

O=C1OC(c2ccccc2)(c2cccc3ccccc23)CC1c1ccccc1 (stereo unspecified)
inactive: [2] 98 % of control | [3] 98 % of control | [4] 89 % of control

O=[N+]([O-])c1cc(NS(=O)(=O)c2ccccc2)ccc1NS(=O)(=O)c1ccccc1
inactive: dose: 50.0 mg/kg/injection, schedule: Q01DX009 (ip), vehicle: Klucel (hydroxypropylcellulose) (HPC) 90 % of control | dose: 100.0 mg/kg/injection, schedule: Q01DX009 (ip), vehicle: Klucel (hydroxypropylcellulose) (HPC) 90 % of control | [5] 111 % of control | dose: 200.0 mg/kg/injection, schedule: Q01DX009 (ip), vehicle: Klucel (hydroxypropylcellulose) (HPC) 93 % of control | [6] 97 % of control | [7] 94 % of control

COC(=O)CCCC(=O)c1[nH]c2ccccc2c1CC(=O)NCc1ccccc1
inactive: dose: 75.0 mg/kg/injection, schedule: Q01DX001 (ip), vehicle: alcohol 97 % of control | dose: 150.0 mg/kg/injection, schedule: Q01DX001 (ip), vehicle: alcohol 93 % of control | dose: 300.0 mg/kg/injection, schedule: Q01DX001 (ip), vehicle: alcohol 92 % of control

Nc1ccc2ccccc2c1N=Nc1ccc(C(O)C(N)CO)cc1 (stereo unspecified)
inactive: dose: 6.25 mg/kg/injection, schedule: Q01DX009 (ip), vehicle: saline 117 % of control | dose: 12.5 mg/kg/injection, schedule: Q01DX009 (ip), vehicle: saline 98 % of control | dose: 25.0 mg/kg/injection, schedule: Q01DX009 (ip), vehicle: saline 96 % of control

O=C(O)CCN1CCN(c2cccc(Cl)c2)CC1
inactive: [2] 96 % of control | [3] 95 % of control

O=C(O)c1ccc(N2C(=O)C=CC2=O)cc1 (tested in a mixture with another compound)
inactive: dose: 12.5 mg/kg/injection, schedule: Q01DX009 (ip), vehicle: acetone 90 % of control

CC[N+](C)(CC)CCN1C(=O)c2ccccc2S1(=O)=O
inactive: dose: 44.0 mg/kg/injection, schedule: Q01DX Z (ip), vehicle: saline 108 % of control | dose: 66.0 mg/kg/injection, schedule: Q01DX Z (ip), vehicle: saline 98 % of control

CCCCCCCCCCC[As](=O)(O)O
inactive: dose: 12.5 mg/kg/injection, schedule: Q01DX001 (ip), vehicle: carboxymethylcellulose (CMC) 108 % of control | dose: 25.0 mg/kg/injection, schedule: Q01DX001 (ip), vehicle: carboxymethylcellulose (CMC) 96 % of control | dose: 50.0 mg/kg/injection, schedule: Q01DX001 (ip), vehicle: carboxymethylcellulose (CMC) 104 % of control

CCNCCNC
inactive: dose: 50.0 mg/kg/injection, schedule: Q01DX009 (ip), vehicle: saline 96 % of control | [8] 101 % of control | [9] 108 % of control | [10] 101 % of control

CCCCCc1c(C(F)(F)F)[nH]c(=O)[nH]c1=O
inactive: [5] 90 % of control | [6] 101 % of control | [7] 111 % of control

CCCCNC(=O)c1ccccc1-c1ccccc1C(=O)NCCCC
inactive: dose: 100.0 mg/kg/injection, schedule: Q01DX001 (ip), vehicle: other 105 % of control | dose: 200.0 mg/kg/injection, schedule: Q01DX001 (ip), vehicle: other 97 % of control

C=C(C)COc1c(CCC)cc(C)cc1NC(C)=O
inactive: [1] 106 % of control | [11] 97 % of control | [12] 104 % of control

CC[CH2][Sn]([CH2]CC)([CH2]CC)[O]C(=O)CN1CCC[CH]([Hg][c]2cccnc2)C1 (stereo unspecified)
inactive: dose: 50.0 mg/kg/injection, schedule: Q01DX001 (ip), vehicle: saline 98 % of control | [2] 109 % of control | [3] 104 % of control

CC(=N)/C(C(=O)NC1CCCCC1)=C(/C)O
inactive: [8] 101 % of control | [9] 104 % of control | dose: 200.0 mg/kg/injection, schedule: Q01DX009 (ip), vehicle: saline 103 % of control | [10] 109 % of control | dose: 400.0 mg/kg/injection, schedule: Q01DX009 (ip), vehicle: saline 93 % of control | dose: 400.0 mg/kg/injection, schedule: Q04DX003 (ip), vehicle: saline 96 % of control

C=CCc1ccc(OCCOCCNC2C(C)CCCC2(C)C)c(OC)c1 (stereo unspecified)
inactive: dose: 5.0 mg/kg/injection, schedule: Q01DX009 (ip), vehicle: Klucel (hydroxypropylcellulose) (HPC) 101 % of control | dose: 5.0 mg/kg/injection, schedule: Q04DX003 (ip), vehicle: Klucel (hydroxypropylcellulose) (HPC) 96 % of control | dose: 10.0 mg/kg/injection, schedule: Q01DX009 (ip), vehicle: Klucel (hydroxypropylcellulose) (HPC) 100 % of control | dose: 10.0 mg/kg/injection, schedule: Q04DX003 (ip), vehicle: Klucel (hydroxypropylcellulose) (HPC) 90 % of control | dose: 20.0 mg/kg/injection, schedule: Q01DX009 (ip), vehicle: Klucel (hydroxypropylcellulose) (HPC) 97 % of control | dose: 20.0 mg/kg/injection, schedule: Q04DX003 (ip), vehicle: Klucel (hydroxypropylcellulose) (HPC) 96 % of control

Cc1nc2c(=O)[nH]n(C)c2nc1C
inactive: dose: 100.0 mg/kg/injection, schedule: Q01DX009 (ip), vehicle: saline with Tween-80 97 % of control | dose: 200.0 mg/kg/injection, schedule: Q01DX009 (ip), vehicle: saline with Tween-80 95 % of control | dose: 400.0 mg/kg/injection, schedule: Q01DX009 (ip), vehicle: saline with Tween-80 95 % of control

COc1ccc(/C=C(/C)[N+](=O)[O-])cc1
inactive: dose: 50.0 mg/kg/injection, schedule: Q01DX001 (ip), vehicle: Klucel (hydroxypropylcellulose) (HPC) 104 % of control | dose: 100.0 mg/kg/injection, schedule: Q01DX001 (ip), vehicle: Klucel (hydroxypropylcellulose) (HPC) 97 % of control | dose: 200.0 mg/kg/injection, schedule: Q01DX001 (ip), vehicle: Klucel (hydroxypropylcellulose) (HPC) 95 % of control and 90 % of control | dose: 300.0 mg/kg/injection, schedule: Q01DX001 (ip), vehicle: Klucel (hydroxypropylcellulose) (HPC) 100 % of control

CC(CO)CCC1OC2CC3C4CCC5CC(O)CCC5(C)C4CCC3(C)C2C1C (stereo unspecified)
inactive: dose: 100.0 mg/kg/injection, schedule: Q04DX002 (ip), vehicle: Klucel (hydroxypropylcellulose) (HPC) 86 % of control | dose: 200.0 mg/kg/injection, schedule: Q04DX002 (ip), vehicle: Klucel (hydroxypropylcellulose) (HPC) 95 % of control | dose: 400.0 mg/kg/injection, schedule: Q04DX002 (ip), vehicle: Klucel (hydroxypropylcellulose) (HPC) 95 % of control

C/C=C/C=C\COC(=O)C1CC1
inactive: dose: 100.0 mg/kg/injection, schedule: Q04DX002 (ip), vehicle: saline 116 % of control | dose: 200.0 mg/kg/injection, schedule: Q04DX002 (ip), vehicle: saline 121 % of control

CCC(C)C(NC(=O)C1CSC(C)(C)N1C=O)C(=O)OC1CCCCC1 (stereo unspecified)
inactive: [1] 98 % of control | [11] 97 % of control | [12] 101 % of control

Oc1ccc(Br)cc1/C=N/N1CCN(/N=C/c2cc(Br)ccc2O)CC1
inactive: [2] 96 % of control | [3] 92 % of control | [4] 90 % of control

COc1ccc(C(=O)OCC(Br)CBr)cc1 (stereo unspecified)
inactive: dose: 222.0 mg/kg/injection, schedule: Q01DX Z (ip), vehicle: methylcellulose (MC) 102 % of control | dose: 333.0 mg/kg/injection, schedule: Q01DX Z (ip), vehicle: methylcellulose (MC) 108 % of control | dose: 500.0 mg/kg/injection, schedule: Q01DX Z (ip), vehicle: methylcellulose (MC) 103 % of control
